In the CheMixHub viscosity set:
Several values for one entry are separate records, joined by “and”; a condition that tells them apart may be missing. Equal values may be shown once.

Assay: xn = mol fraction of the nth substance listed

CCCCCCO + c1ccccc1
Conditions | viscosity [mPa·s]
293.15 K, 100 kPa, x2 = 0.0814 | 4.394
293.15 K, 100 kPa, x2 = 0.1623 | 3.612
293.15 K, 100 kPa, x2 = 0.2401 | 3.045
293.15 K, 100 kPa, x2 = 0.3536 | 2.371
293.15 K, 100 kPa, x2 = 0.4411 | 1.932
293.15 K, 100 kPa, x2 = 0.5516 | 1.507
293.15 K, 100 kPa, x2 = 0.6465 | 1.218
293.15 K, 100 kPa, x2 = 0.7441 | 0.979
293.15 K, 100 kPa, x2 = 0.8425 | 0.828
293.15 K, 100 kPa, x2 = 0.9324 | 0.728
298.15 K, 101 kPa, x1 = 0.04 | 0.615
298.15 K, 101 kPa, x1 = 0.078 | 0.633
298.15 K, 101 kPa, x1 = 0.12 | 0.663
298.15 K, 101 kPa, x1 = 0.16 | 0.709
298.15 K, 101 kPa, x1 = 0.34 | 0.98
298.15 K, 101 kPa, x1 = 0.43 | 1.195
298.15 K, 101 kPa, x1 = 0.53 | 1.505
298.15 K, 101 kPa, x1 = 0.75 | 2.444
303 K, 101.33 kPa, x1 = 0.1001 | 0.6115
303 K, 101.33 kPa, x1 = 0.2002 | 0.7018
303 K, 101.33 kPa, x1 = 0.3 | 0.8271
303 K, 101.33 kPa, x1 = 0.4002 | 0.9916
303 K, 101.33 kPa, x1 = 0.5004 | 1.198
303 K, 101.33 kPa, x1 = 0.6012 | 1.498
303 K, 101.33 kPa, x1 = 0.6985 | 1.883
303 K, 101.33 kPa, x1 = 0.8 | 2.387
303 K, 101.33 kPa, x1 = 0.8982 | 2.971
303.15 K, 100 kPa, x2 = 0.0814 | 3.292
303.15 K, 100 kPa, x2 = 0.1623 | 2.773
303.15 K, 100 kPa, x2 = 0.2401 | 2.333
303.15 K, 100 kPa, x2 = 0.3536 | 1.832
303.15 K, 100 kPa, x2 = 0.4411 | 1.514
303.15 K, 100 kPa, x2 = 0.5516 | 1.175
303.15 K, 100 kPa, x2 = 0.6465 | 0.951
303.15 K, 100 kPa, x2 = 0.7441 | 0.797
303.15 K, 100 kPa, x2 = 0.8425 | 0.684
303.15 K, 100 kPa, x2 = 0.9324 | 0.604
313 K, 101.33 kPa, x1 = 0.1001 | 0.5329
313 K, 101.33 kPa, x1 = 0.2002 | 0.6064
313 K, 101.33 kPa, x1 = 0.3 | 0.7078
313 K, 101.33 kPa, x1 = 0.4002 | 0.8581
313 K, 101.33 kPa, x1 = 0.5004 | 0.9873
313 K, 101.33 kPa, x1 = 0.6012 | 1.194
313 K, 101.33 kPa, x1 = 0.6985 | 1.49
313 K, 101.33 kPa, x1 = 0.8 | 1.852
313 K, 101.33 kPa, x1 = 0.8982 | 2.274
313.15 K, 100 kPa, x2 = 0.0814 | 2.463
313.15 K, 100 kPa, x2 = 0.1623 | 2.077
313.15 K, 100 kPa, x2 = 0.2401 | 1.772
313.15 K, 100 kPa, x2 = 0.3536 | 1.428
313.15 K, 100 kPa, x2 = 0.4411 | 1.201
313.15 K, 100 kPa, x2 = 0.5516 | 0.954
313.15 K, 100 kPa, x2 = 0.6465 | 0.789
313.15 K, 100 kPa, x2 = 0.7441 | 0.661
313.15 K, 100 kPa, x2 = 0.8425 | 0.581
313.15 K, 100 kPa, x2 = 0.9324 | 0.525
323 K, 101.33 kPa, x1 = 0.1001 | 0.4717
323 K, 101.33 kPa, x1 = 0.2002 | 0.53
323 K, 101.33 kPa, x1 = 0.3 | 0.613
323 K, 101.33 kPa, x1 = 0.4002 | 0.7007
323 K, 101.33 kPa, x1 = 0.5004 | 0.8259
323 K, 101.33 kPa, x1 = 0.6012 | 0.9863
323 K, 101.33 kPa, x1 = 0.6985 | 1.209
323 K, 101.33 kPa, x1 = 0.8 | 1.467
323 K, 101.33 kPa, x1 = 0.8982 | 1.768
323.15 K, 100 kPa, x2 = 0.0814 | 1.934
323.15 K, 100 kPa, x2 = 0.1623 | 1.654
323.15 K, 100 kPa, x2 = 0.2401 | 1.411
323.15 K, 100 kPa, x2 = 0.3536 | 1.135
323.15 K, 100 kPa, x2 = 0.4411 | 0.962
323.15 K, 100 kPa, x2 = 0.5516 | 0.781
323.15 K, 100 kPa, x2 = 0.6465 | 0.656
323.15 K, 100 kPa, x2 = 0.7441 | 0.568
323.15 K, 100 kPa, x2 = 0.8425 | 0.5
323.15 K, 100 kPa, x2 = 0.9324 | 0.458

CCOCC + c1ccccc1
Conditions | viscosity
293.15 K, 101 kPa, x2 = 0.24 | 0.3 mPa·s
293.15 K, 101 kPa, x2 = 0.49 | 0.381 mPa·s
293.15 K, 101 kPa, x2 = 0.74 | 0.482 mPa·s
293.15 K, 101.33 kPa, x1 = 0.2 | 0.504 mPa·s and 0.504 mPa·s
293.15 K, 101.33 kPa, x1 = 0.4 | 0.407 mPa·s
293.15 K, 101.33 kPa, x1 = 0.5 | 0.371 mPa·s and 0.371 mPa·s
293.15 K, 101.33 kPa, x1 = 0.6 | 0.339 mPa·s
293.15 K, 101.33 kPa, x1 = 0.8 | 0.289 mPa·s
298.15 K, 101 kPa, x1 = 0.2529 | 0.438 mPa·s
298.15 K, 101 kPa, x1 = 0.4438 | 0.362 mPa·s
298.15 K, 101 kPa, x1 = 0.7248 | 0.282 mPa·s
298.15 K, 101 kPa, x2 = 0.24 | 0.288 mPa·s
298.15 K, 101 kPa, x2 = 0.275 | 0.282 mPa·s
298.15 K, 101 kPa, x2 = 0.49 | 0.366 mPa·s
298.15 K, 101 kPa, x2 = 0.5563 | 0.362 mPa·s
298.15 K, 101 kPa, x2 = 0.74 | 0.455 mPa·s
298.15 K, 101 kPa, x2 = 0.7471 | 0.438 mPa·s
303.15 K, 101 kPa, x2 = 0.24 | 0.278 mPa·s
303.15 K, 101 kPa, x2 = 0.49 | 0.346 mPa·s
303.15 K, 101 kPa, x2 = 0.74 | 0.43 mPa·s
308.15 K, 101 kPa, x2 = 0.49 | 0.322 mPa·s
308.15 K, 101 kPa, x2 = 0.74 | 0.408 mPa·s

O=C1CCCCC1 + c1ccccc1
viscosity [mPa·s]
Conditions | 298.15 K | 303.15 K | 308.15 K
101 kPa, x1 = 0.0989 | 0.674 | – | –
101 kPa, x1 = 0.1983 | 0.731 | – | –
101 kPa, x1 = 0.2984 | 0.8 | – | –
101 kPa, x1 = 0.3848 | 0.865 | – | –
101 kPa, x1 = 0.5166 | 0.856 | – | –
101 kPa, x1 = 0.5909 | 1.086 | – | –
101 kPa, x1 = 0.6876 | 1.37 | – | –
101 kPa, x1 = 0.7775 | 1.481 | – | –
101 kPa, x1 = 0.8574 | 1.534 | – | –
101.33 kPa, x1 = 0.1014 | 0.661 | 0.616 | 0.574
101.33 kPa, x1 = 0.1996 | 0.726 | 0.676 | 0.629
101.33 kPa, x1 = 0.3037 | 0.803 | 0.747 | 0.694
101.33 kPa, x1 = 0.4039 | 0.888 | 0.824 | 0.771
101.33 kPa, x1 = 0.502 | 0.996 | 0.942 | 0.85
101.33 kPa, x1 = 0.5997 | 1.122 | 1.026 | 0.945
101.33 kPa, x1 = 0.7018 | 1.28 | 1.175 | 1.084
101.33 kPa, x1 = 0.8023 | 1.472 | 1.346 | 1.236
101.33 kPa, x1 = 0.9237 | 1.773 | 1.61 | 1.472
